This note sets out measurements from ChEMBL document CHEMBL1144301, “Non-peptidic small molecule inhibitors of XIAP” (Bioorg Med Chem Lett, 2005).

The test addresses E3 ubiquitin-protein ligase XIAP (Homo sapiens, UniProt P98170). In words: Dissociation constant against BIR3 domain of X-linked IAP in fluorescence polarization anisotropy competition assay.

Chain of E3 ubiquitin-protein ligase XIAP (P98170 whole entry, the tested form may be a part): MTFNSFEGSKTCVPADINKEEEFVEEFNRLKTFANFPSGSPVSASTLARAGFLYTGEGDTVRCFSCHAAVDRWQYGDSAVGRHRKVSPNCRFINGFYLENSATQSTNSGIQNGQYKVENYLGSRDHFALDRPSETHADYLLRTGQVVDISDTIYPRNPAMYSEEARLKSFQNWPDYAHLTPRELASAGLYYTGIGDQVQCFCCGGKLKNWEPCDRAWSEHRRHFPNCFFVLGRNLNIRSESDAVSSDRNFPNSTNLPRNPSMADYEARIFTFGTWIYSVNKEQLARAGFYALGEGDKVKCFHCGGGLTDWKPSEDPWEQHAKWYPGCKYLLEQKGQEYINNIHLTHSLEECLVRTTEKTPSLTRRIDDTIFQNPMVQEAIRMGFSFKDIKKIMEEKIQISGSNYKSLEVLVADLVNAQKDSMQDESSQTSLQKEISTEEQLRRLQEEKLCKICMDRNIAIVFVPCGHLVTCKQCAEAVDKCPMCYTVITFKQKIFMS

Compound `C[C@H](N)C(=O)Nc1nc(-c2cccc(Cc3ccccc3)c2)c(Cc2ccccc2)s1` gave a Kd greater than 100 µM.
